From patent US20240425496A1, “AZETIDINYL PYRIMIDINES AND USES THEREOF” (Aerie Pharmaceuticals, Inc., priority 2021, published 2024)

Experiments:
Format in all cases: biochemical
TYK2 = TYK2 (Homo sapiens (Human), UniProt P29597); assay: JAK kinase assay (KINASE-GLO luminescent), TYK2 enzyme; conditions: TYK2 enzyme 10 nM, Abl peptide substrate
In short: (§1)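 Kinase-Glo luminescence measures ATP remaining after 75 min at room temperature; ATP 2 μM in 4× stock. 11-point 1:5 dilutions, 2.5% DMSO final. Percent of DMSO control per concentration, IC50 by 4-parameter logistic fit.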

JAK2 = JAK2 (Homo sapiens (Human), UniProt O60674); assay: JAK kinase assay (KINASE-GLO luminescent), JAK2 enzyme; conditions: JAK2 enzyme 10 nM, Abl peptide substrate
Experimental: All compounds were initially prepared as 10 mM stocks in anhydrous dimethylsulfoxide (DMSO). A 20 μL aliquot of the 10 mM solutions was transferred to individual wells in column 1 of a 96-well polypropylene microtiter plate (Corning #3363) and diluted with DMSO to give a final compound concentration of 4 mM. Test compounds were then serially diluted 1:5 in DMSO for an 11-point concentration response and further diluted in the assay buffer bringing all compound concentrations to a final range of 100 μM to […] in 2.5% DMSO. The assay was performed in white 96-well, flat-bottom, half-area, non-binding assay plate (Corning #3642) in assay buffer consisting of 20 mM HEPES (pH 7.5), 10 mM MgCl2*6H2O, 100 μM sodium orthovanadate, 0.05% CHAPS and 0.1% bovine serum albumin. A 10 μL aliquot of compound from each well of the intermediate dilution plate and 20 μL of a 2× substrate/enzyme solution containing acceptor substrate (800 nM RSK2 peptide […] (SEQ ID NO: 1)), ROCK2 enzyme (10 nM), or ROCK1 enzyme, and 1,4-Dithiothreitol (DTT, 2 uM) were added to all wells. The reaction was initiated by the addition of 10 μL of 4× stock solution ATP (2 μM). Reactions were thoroughly mixed manually, covered, and allowed to incubate at room temperature for 75 min. Protein kinase activity was quantitated using Promega's KINASE-GLO™ luminescent Kinase Assay Kit according to the manufacturer's directions. ATP concentrations remaining in Test wells following the termination of the enzymatic reaction were compared against control wells containing equivalent amounts of DMSO containing no inhibitor (CTRL). […] Percent of Control (POC) values were determined for each concentration of compound tested according to the equation: […]
IC50 values were calculated using the following 4-parameter logistic curve-fitting algorithm:
Compounds were prepared in the exact same manner as described in the ROCK Kinase Assay with the exception to the substrate and enzyme. […]

JAK1 = JAK1 (Homo sapiens (Human), UniProt P23458); assay: JAK kinase assay (KINASE-GLO luminescent), JAK1 enzyme; conditions: JAK1 enzyme 10 nM, Abl peptide substrate
In short: as §1

Chain of JAK2 (O60674 whole entry, species assumed): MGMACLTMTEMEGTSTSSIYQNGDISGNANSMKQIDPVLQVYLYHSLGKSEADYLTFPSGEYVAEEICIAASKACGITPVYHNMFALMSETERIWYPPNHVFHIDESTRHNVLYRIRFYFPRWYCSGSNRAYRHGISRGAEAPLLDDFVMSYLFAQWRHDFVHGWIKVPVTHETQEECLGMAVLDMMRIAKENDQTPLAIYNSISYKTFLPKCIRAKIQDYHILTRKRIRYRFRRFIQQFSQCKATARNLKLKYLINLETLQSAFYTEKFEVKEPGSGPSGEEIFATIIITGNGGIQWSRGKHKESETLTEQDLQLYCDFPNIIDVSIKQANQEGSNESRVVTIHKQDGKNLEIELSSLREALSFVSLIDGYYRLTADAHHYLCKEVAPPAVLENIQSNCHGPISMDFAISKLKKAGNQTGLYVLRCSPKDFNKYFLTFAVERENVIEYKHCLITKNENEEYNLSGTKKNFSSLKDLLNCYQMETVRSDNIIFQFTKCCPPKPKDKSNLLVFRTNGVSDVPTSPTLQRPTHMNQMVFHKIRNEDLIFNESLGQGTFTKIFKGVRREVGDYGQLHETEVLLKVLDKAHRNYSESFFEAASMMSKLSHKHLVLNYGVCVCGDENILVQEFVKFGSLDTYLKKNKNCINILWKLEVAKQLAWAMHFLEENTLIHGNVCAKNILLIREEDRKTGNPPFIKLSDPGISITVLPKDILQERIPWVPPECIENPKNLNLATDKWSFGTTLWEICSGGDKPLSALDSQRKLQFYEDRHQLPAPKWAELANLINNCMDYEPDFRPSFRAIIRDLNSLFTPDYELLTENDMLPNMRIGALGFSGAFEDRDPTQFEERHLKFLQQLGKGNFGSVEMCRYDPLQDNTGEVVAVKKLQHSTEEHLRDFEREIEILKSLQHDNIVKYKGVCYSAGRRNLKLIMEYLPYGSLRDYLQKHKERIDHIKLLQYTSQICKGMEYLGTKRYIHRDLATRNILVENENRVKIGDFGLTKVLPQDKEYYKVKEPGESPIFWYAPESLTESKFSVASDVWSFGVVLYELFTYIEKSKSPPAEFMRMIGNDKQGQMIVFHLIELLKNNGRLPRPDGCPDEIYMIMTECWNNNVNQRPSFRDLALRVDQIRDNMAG
Chain of JAK1 (P23458 whole entry, species assumed): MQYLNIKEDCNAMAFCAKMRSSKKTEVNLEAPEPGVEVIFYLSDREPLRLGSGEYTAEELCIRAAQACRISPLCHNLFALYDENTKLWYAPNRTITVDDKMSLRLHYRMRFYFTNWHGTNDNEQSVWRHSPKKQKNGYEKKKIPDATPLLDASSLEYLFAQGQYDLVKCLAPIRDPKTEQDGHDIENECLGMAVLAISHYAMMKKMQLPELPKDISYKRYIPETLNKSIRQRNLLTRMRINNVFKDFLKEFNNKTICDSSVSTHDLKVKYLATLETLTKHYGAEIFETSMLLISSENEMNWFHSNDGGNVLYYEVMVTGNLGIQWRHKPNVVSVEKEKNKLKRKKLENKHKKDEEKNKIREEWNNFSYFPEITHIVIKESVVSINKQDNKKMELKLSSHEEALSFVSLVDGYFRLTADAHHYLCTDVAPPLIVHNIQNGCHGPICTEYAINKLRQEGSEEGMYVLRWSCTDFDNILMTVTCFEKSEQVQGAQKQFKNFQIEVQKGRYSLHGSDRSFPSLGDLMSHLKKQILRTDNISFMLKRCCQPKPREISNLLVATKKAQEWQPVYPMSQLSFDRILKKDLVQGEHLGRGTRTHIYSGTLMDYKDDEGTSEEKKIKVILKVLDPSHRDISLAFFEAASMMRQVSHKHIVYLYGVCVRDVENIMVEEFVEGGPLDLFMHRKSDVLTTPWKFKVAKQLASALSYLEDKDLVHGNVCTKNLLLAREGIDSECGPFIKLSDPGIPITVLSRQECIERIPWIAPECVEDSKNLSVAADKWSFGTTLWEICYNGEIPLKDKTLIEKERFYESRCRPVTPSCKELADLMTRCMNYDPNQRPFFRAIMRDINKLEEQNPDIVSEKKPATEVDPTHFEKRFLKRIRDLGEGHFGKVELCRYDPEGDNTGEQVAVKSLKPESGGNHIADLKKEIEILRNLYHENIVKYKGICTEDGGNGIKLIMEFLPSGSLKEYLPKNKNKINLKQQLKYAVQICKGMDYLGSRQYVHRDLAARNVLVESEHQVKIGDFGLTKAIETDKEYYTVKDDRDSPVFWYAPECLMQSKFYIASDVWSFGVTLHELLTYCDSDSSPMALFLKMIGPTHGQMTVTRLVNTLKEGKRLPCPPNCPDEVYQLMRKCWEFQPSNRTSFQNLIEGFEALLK
Chain of TYK2 (P29597 whole entry, species assumed): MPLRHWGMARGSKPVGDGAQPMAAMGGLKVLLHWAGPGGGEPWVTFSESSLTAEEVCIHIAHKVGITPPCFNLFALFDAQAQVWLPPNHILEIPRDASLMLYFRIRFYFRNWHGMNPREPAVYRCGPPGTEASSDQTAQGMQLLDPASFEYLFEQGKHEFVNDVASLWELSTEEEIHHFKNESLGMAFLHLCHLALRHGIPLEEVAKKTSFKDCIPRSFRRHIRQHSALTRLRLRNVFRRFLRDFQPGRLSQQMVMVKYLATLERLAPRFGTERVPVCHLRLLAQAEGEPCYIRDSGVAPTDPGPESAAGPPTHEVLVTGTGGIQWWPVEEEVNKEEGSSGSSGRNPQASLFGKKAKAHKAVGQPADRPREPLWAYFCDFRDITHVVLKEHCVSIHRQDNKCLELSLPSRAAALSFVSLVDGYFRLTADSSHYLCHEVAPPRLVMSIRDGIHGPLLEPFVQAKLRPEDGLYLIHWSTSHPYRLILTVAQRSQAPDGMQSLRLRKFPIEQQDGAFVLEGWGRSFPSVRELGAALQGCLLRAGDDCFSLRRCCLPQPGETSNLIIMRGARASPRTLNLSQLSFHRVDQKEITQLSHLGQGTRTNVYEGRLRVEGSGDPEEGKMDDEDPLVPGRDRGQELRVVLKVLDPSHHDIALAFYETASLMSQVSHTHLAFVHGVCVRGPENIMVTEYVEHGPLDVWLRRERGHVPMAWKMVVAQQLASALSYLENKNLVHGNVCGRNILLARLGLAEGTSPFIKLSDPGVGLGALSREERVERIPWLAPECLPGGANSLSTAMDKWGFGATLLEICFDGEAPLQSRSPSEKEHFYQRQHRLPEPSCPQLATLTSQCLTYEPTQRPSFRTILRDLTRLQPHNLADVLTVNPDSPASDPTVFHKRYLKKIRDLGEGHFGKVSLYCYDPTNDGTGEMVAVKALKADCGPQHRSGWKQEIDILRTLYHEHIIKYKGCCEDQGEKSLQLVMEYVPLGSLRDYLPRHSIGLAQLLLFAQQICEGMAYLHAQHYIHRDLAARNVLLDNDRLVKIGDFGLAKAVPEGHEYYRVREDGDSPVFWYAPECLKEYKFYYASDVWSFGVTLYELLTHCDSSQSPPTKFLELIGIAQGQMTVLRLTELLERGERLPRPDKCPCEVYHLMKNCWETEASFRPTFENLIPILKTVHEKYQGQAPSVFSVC

Row | IC50 (TYK2) [nM] | IC50 (JAK2) [nM] | IC50 (JAK1) [nM] | SMILES
1 | < 10 | < 20 | – | Cc1cc(Nc2ncc(C)c(N3CC(CC#N)(N4CCN(C)[C@H](C)C4)C3)n2)sn1 [E52C]
2 | – | < 50 | < 50 | Cc1cnc(Nc2ccc3c(c2)CN(C)C3)nc1N1CC(CC#N)(N2CCC(CCF)CC2)C1 [E112]
